Holding throughout (type): cell-based
The test system of assay [1] is MIA PaCa-2 cells. Kind of assay: PARP cleavage (apoptosis) by Western blot in MIA PaCa-2 cells. As to conditions: co-treatment with the therapeutic agent for KRAS G12C genetic mutation vs either agent alone, twenty four hours (FIG. 3). How it is done: To identify the effect of aripiprazole on apoptosis induced by the therapeutic agent for KRAS G12C genetic mutation in cancer cells, MIA PaCa-2 cells were treated with aripiprazole alone or in combination with the therapeutic agent for KRAS G12C genetic mutation. Twenty four hours later, proteins were extracted from cells after washing with PBS, and the degree of PARP cleavage was checked via Western blot.
(Immunoblotting shows a protein as a band on a membrane.)

The test system of assay [2] is NCI-H1373 cells. Kind of assay: PARP cleavage (apoptosis) by Western blot in NCI-H1373 cells. As to conditions: co-treatment with the therapeutic agent for KRAS G12C genetic mutation vs either agent alone, twenty four hours (FIG. 4). How it is done: To identify the effect of aripiprazole on apoptosis induced by the therapeutic agent for KRAS G12C genetic mutation in cancer cells, NCI-H1373 cells were treated with aripiprazole alone or in combination with the therapeutic agent for KRAS G12C genetic mutation. Twenty four hours later, proteins were extracted from cells after washing with PBS, and the degree of PARP cleavage was checked via Western blot.

Assay [3] concerns NOXA protein. Nature of the assay: NOXA protein expression by Western blot in MIA PaCa-2 cells. The following applies: aripiprazole treatment, eight hours, Western blot (FIG. 1). How it is done: (§1) To identify an effect of aripiprazole on the expression of a NOXA protein in cancer cells, MIA PaCa-2 cells and NCI-H1373 cells were treated with aripiprazole. Eight hours later, proteins were extracted from cells after washing with PBS, and a level of NOXA expression was checked via Western blot.

Assay [4] deals with NOXA protein. Nature of the assay: NOXA protein expression by Western blot in NCI-H1373 cells. As to conditions: aripiprazole treatment, eight hours, Western blot (FIG. 1). How it is done: as §1

On to `O=C1CCc2ccc(OCCCCN3CCN(c4cccc(Cl)c4Cl)CC3)cc2N1` [aripiprazole], for which the “degree of PARP cleavage” value in assay [1] and in assay [2] was “superior effect of inducing PARP cleavage” in each case. Also, the “expression of NOXA protein” value in assay [3] and in assay [4] was “increased” each time.

Values taken from patent publication US20250312333A1, “COMPOSITION CONTAINING ARIPIPRAZOLE AS ACTIVE INGREDIENT FOR ENHANCING ANTICANCER EFFECT OF KRAS G12C GENETIC MUTATION THERAPEUTIC AGENT” (KOREA INSTITUTE OF RADIOLOGICAL & MEDICAL SCIENCES, priority 2022, published 2025).
